Patent publication US20190119282A1, “IMIDAZOPYRIDAZINES USEFUL AS INHIBITORS OF THE PAR-2 SIGNALING PATHWAY” (Vertex Pharmaceuticals Incorporated, priority 2013, published 2019)

How the values were obtained:
[1] = biological target: T1, PAR2 (HT-29 cells, SLIGKV activation) (Homo sapiens, UniProt P55085); assay: Ca FLIPR TETRA assay, ANTAGONIST mode, stimulation with 8 μM SLIGKV; type: cell-based; settings: HT-29 cells, antagonist mode, stimulation with 8 μM SLIGKV
T1 construct: host or cells: HT-29 cells
T1 sequence (P55085 26-397): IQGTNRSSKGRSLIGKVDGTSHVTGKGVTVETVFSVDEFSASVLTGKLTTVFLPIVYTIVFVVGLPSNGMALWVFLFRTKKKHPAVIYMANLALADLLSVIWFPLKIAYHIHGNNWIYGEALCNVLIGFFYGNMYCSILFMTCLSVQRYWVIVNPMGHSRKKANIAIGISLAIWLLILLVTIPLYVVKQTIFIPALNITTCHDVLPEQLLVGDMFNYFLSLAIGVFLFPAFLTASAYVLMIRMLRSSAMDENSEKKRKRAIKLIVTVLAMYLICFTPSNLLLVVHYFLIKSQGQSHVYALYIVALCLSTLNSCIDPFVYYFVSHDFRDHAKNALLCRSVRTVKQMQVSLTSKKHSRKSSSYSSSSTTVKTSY
Method in brief: (§1)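 FLIPR Tetra Ca2+ read-out in HT-29 cells, calcium 5 dye. Compound preincubation 30 min r.t., with an initial read for agonist activity. Final activator levels: SLIGKV 8 μM, thrombin 1 U/mL, trypsin 3.1 U/mL, UTP 0.6 μM.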

[2] = biological target: T2, PAR2 (HT-29 cells, trypsin activation) (Homo sapiens, UniProt P55085); assay: Ca FLIPR TETRA assay, ANTAGONIST mode, stimulation with 3.1 U/mL trypsin; type: cell-based; settings: HT-29 cells, antagonist mode, stimulation with 3.1 U/mL trypsin
T2 construct: host or cells: HT-29 cells
T2 sequence (P55085 26-397): T1 sequence (P55085 26-397)
Method in brief: as §1

[3] = tested on: Thrombin-stimulated Ca2+ response in HT-29 cells; assay: Ca FLIPR TETRA assay, ANTAGONIST mode, stimulation with 1 U/mL Thrombin; type: cell-based, human; settings: Homo sapiens; HT-29 cells, antagonist mode, stimulation with 1 U/mL Thrombin
Method in brief: as §1

[4] = tested on: UTP-stimulated Ca2+ response in HT-29 cells; assay: Ca FLIPR TETRA assay, ANTAGONIST mode, stimulation with 0.6 μM UTP; type: cell-based, human; settings: Homo sapiens; HT-29 cells, antagonist mode, stimulation with 0.6 μM UTP
Method in brief: as §1

| IC50 [1] [nM] | IC50 [2] [nM] | IC50 [3] [nM] | IC50 [4] [nM] | Structure (SMILES) |
| --- | --- | --- | --- | --- |
| 2.6 | 4.6 | > 1000 | > 1000 | CC(C)c1cc(-c2ccc(F)cc2)nn2cc(C(=O)N3CCN(C#N)C(=O)C3(C)C)nc12 [Compound I-274] |
| 9.8 | 16.7 | > 1000 | > 1000 | CC(C)c1cc(-c2ccc(F)cc2)nn2cc(C(=O)N3CCN(c4nn[nH]n4)C(=O)C3(C)C)nc12 [Compound I-275] |
| 0.4 | 0.4 | > 1000 | > 1000 | CC(C)c1cc(-c2ccc(C(F)(F)F)c(F)c2)nn2cc(C(=O)N3CCN(C(=O)[C@H]4C[C@](O)(C(F)(F)F)C4)CC3(C)C)nc12 [Compound I-276] |
| 1.3 | 1.3 | > 1000 | > 1000 | CC(C)c1cc(-c2ccc(C(F)(F)F)c(F)c2)nn2cc(C(=O)N3CCN(C(=O)c4ccn[nH]4)CC3(C)C)nc12 [Compound I-277] |
| 2.1 | 2.8 | > 1000 | > 1000 | CC(C)c1cc(-c2ccc(C(F)(F)F)c(F)c2)nn2cc(C(=O)N3CCN(C(=O)c4ccncn4)CC3(C)C)nc12 [Compound I-278] |
| 3.3 | 4.6 | > 1000 | > 1000 | CC(C)c1cc(-c2ccc(C(F)(F)F)cc2)nn2cc(C(=O)N3CCN(C(=O)c4nc[nH]n4)CC3(C)C)nc12 [Compound I-279] |
| 9.6 | 6 | > 1000 | > 1000 | Cc1nnc(C(=O)N2CCN(C(=O)c3cn4nc(-c5ccc(C(F)(F)F)cc5)cc(C(C)C)c4n3)C(C)(C)C2)o1 [Compound I-280] |
| 2.5 | 3.6 | > 1000 | > 1000 | CC(C)c1cc(-c2ccc(C(F)(F)F)cc2)nn2cc(C(=O)N3CCN(C(=O)c4ccccn4)CC3(C)C)nc12 [Compound I-281] |
| 16 | 14.2 | > 1000 | > 1000 | CC(C)c1cc(-c2ccc(C(F)(F)F)cc2)nn2cc(C(=O)N3CCN(C(=O)c4cccnn4)CC3(C)C)nc12 [Compound I-282] |

The next lines start with the compound.

| Structure (SMILES) | IC50 [1] [nM] | IC50 [2] [nM] | IC50 [3] [nM] | IC50 [4] [nM] |
| --- | --- | --- | --- | --- |
| CC(C)c1cc(-c2ccc(F)c(F)c2)nn2cc(C(=O)N3CCN(C(=O)[C@H]4C[C@@](O)(C(F)(F)F)C4)CC3(C)C)nc12 [Compound I-264] | 3.1 | 5.2 | > 1000 | > 1000 |
| Cc1cc(-c2cc(C(C)C)c3nc(C(=O)N4CCN(C(=O)[C@H]5C[C@@](O)(C(F)(F)F)C5)CC4(C)C)cn3n2)ccc1F [Compound I-265] | 3.9 | 5.6 | 570 | > 1000 |
| CC(C)(C)c1cc(-c2ccc(F)cc2)nn2cc(C(=O)N3CCN(c4cscn4)C(=O)C3(C)C)nc12 [Compound I-266] | 0.6 | 1 | > 100 | > 1000 |
| CC(C)(C)c1cc(-c2ccc(F)cc2)nn2cc(C(=O)N3CCN(CC#N)C(=O)C3(C)C)nc12 [Compound I-267] | 1.4 | 2 | 560 | > 1000 |
| CC1(C)CN(C(=O)c2ccncn2)CCN1C(=O)c1cn2nc(-c3ccc(F)cc3)cc(C(F)(F)F)c2n1 [Compound I-268] | 64.5 | 104 | > 1000 | > 1000 |
| CC1(C)CN(C(=O)c2nc[nH]n2)CCN1C(=O)c1cn2nc(-c3ccc(F)cc3)cc(C(F)(F)F)c2n1 [Compound I-269] | 90.5 | 120 | > 1000 | > 1000 |
| CC1(C)CN(C(=O)c2ncc[nH]2)CCN1C(=O)c1cn2nc(-c3ccc(F)cc3)cc(C(F)(F)F)c2n1 [Compound I-270] | 47.5 | 71 | > 1000 | > 1000 |
| CC1(C)CN(C(=O)c2ccn[nH]2)CCN1C(=O)c1cn2nc(-c3ccc(F)cc3)cc(C(F)(F)F)c2n1 [Compound I-271] | 13.3 | 30.3 | > 1000 | > 1000 |
| CC1(C)CN(C(=O)C2CC(O)(C(F)(F)F)C2)CCN1C(=O)c1cn2nc(-c3ccc(F)cc3)cc(C(F)(F)F)c2n1 (stereo not shown) [Compound I-272] | 1.5 | 2.5 | > 1000 | > 1000 |
| CC(C)c1cc(-c2ccc(C(F)(F)F)c(F)c2)nn2cc(C(=O)N3CCNC(=O)C3(C)C)nc12 [Compound I-273] | 0.7 | 1.2 | > 1000 | > 1000 |
